Test results as given in patent US20150283152A1, “Levonorgestrel-Only-Composition For Optimized Oral Contraception With Defined Levonorgestrel Content, Dosage Regimen And Pharmaceutical Preparation” (NAARI AG, priority 2012, published 2015).

Columns and labels:
women = settings: without estrogen; cited from earlier work
Luteinizing Hormone (LH) = experiment: Serum levels of Luteinizing Hormone in male castrated rats (radioimmunoassay); format: in vivo, rat; settings: gonadectomized control 127.0 ± 11.0, p < 0.05
[1] = tested on: immature male Wistar-rats; experiment: Weight of gonads in immature male rats (antigonadotrophic effect); format: in vivo, rat; settings: final control 873.5 ± 62.5, p < 0.05
Text: The influence of levonorgestrel on the secretion of gonadotrophins from the pituitary can be estimated by recording the dose-effect relationships in reducing the weight of the gonads of immature male rats. [table]

New Zealand-rabbits = experiment: Pre-ovulatory repeated oral levonorgestrel, rate of fertilized eggs in rabbits (ovulation induced by PMSG/hCG); format: in vivo, rabbit; settings: for % fertilized (cleaved) eggs: control 90.6
Text: On the last day of LNG-administration, the ovulation was “forced” by intravenous (i.v.) injection of human chorionic gonadotropin (hCG). […] [table]

[2] = Martinez F et al. 2012; cited from earlier work
[3] = tested on: female paired Wistar-rats; experiment: Post-ovulatory subcutaneous levonorgestrel, fertility of female paired rats; format: in vivo, rat
Protocol: Whereas 20 mg/kg bodyweight (b.w.). […] [table]

[4] = total dosage 0.35 mg/animal p.o. over 3 days
[5] = total dosage 1.75 mg/animal p.o. over 3 days
[6] = s.c. days 1-4 p.i., total dose 0.2 mg/animal/4 days
[7] = s.c. days 1-4 p.i., total dose 2.0 mg/animal/4 days
[8] = s.c. once Day 1 p.i., total dose 4.0 mg/animal

What does the source list for `C#C[C@]1(O)CC[C@H]2[C@@H]3CCC4=CC(=O)CC[C@@H]4[C@H]3CC[C@@]21CC` [levonorgestrel]?
daily dosage leading to non-acceptable bleeding irregularities (women): over 0.125 mg; Luteinizing Hormone ng/mL serum (Luteinizing Hormone (LH); total dose 0.14 mg/animal/14 d s.c.): 68.4 ± 15.4 ng/mL serum; Luteinizing Hormone ng/mL serum (Luteinizing Hormone (LH); total dose 1.40 mg/animal/14 d s.c.): 2.2 ± 0.3 ng/mL serum; Gonadal weight/mg Mean ± (S.E.M.) ([1]; total dose 0.14 mg/animal over 14 d s.c.): 579.7 ± 44.7 mg; Gonadal weight/mg Mean ± (S.E.M.) ([1]; total dose 0.42 mg/animal over 14 d s.c.): 385.7 ± 74.3 mg; Gonadal weight/mg Mean ± (S.E.M.) ([1]; total dose 1.40 mg/animal over 14 d s.c.): 180.8 ± 105.5 mg; Total no. of eggs vs. total no. of fertilized (cleaved) eggs (New Zealand-rabbits; [4]): 92/78; % fertilized (cleaved) eggs (New Zealand-rabbits; [4]): 84.8%; Total no. of eggs vs. total no. of fertilized (cleaved) eggs (New Zealand-rabbits; [5]): 81/49; % fertilized (cleaved) eggs (New Zealand-rabbits; [5]): 60.5%; % fertilized (cleaved) eggs (New Zealand-rabbits; total dosage 5.25 mg/animal p.o. over 3 days): 54.5%; risk of venous thromboembolism (VTE) [2]: currently the safest progestin; No. of treated animals vs. no. of intact pregnancies [3, 6]: 10/9; Pregnancy inhibition (%) [3, 6]: 10%; No. of treated animals vs. no. of intact pregnancies [3, 7]: 10/0; Pregnancy inhibition (%) [3, 7]: 100%; No. of treated animals vs. no. of intact pregnancies [3, 8]: 12/12; Pregnancy inhibition (%) [3, 8]: 0%
